The target of this assay is T1, full-length human PKCι (Homo sapiens, UniProt P41743).
T1 construct: Recombinant, full-length human PKCι expressed in Sf21 insect cells is also commercially available; purchased; host or cells: Sf21 insect cells
T1 sequence (P41743 1-596): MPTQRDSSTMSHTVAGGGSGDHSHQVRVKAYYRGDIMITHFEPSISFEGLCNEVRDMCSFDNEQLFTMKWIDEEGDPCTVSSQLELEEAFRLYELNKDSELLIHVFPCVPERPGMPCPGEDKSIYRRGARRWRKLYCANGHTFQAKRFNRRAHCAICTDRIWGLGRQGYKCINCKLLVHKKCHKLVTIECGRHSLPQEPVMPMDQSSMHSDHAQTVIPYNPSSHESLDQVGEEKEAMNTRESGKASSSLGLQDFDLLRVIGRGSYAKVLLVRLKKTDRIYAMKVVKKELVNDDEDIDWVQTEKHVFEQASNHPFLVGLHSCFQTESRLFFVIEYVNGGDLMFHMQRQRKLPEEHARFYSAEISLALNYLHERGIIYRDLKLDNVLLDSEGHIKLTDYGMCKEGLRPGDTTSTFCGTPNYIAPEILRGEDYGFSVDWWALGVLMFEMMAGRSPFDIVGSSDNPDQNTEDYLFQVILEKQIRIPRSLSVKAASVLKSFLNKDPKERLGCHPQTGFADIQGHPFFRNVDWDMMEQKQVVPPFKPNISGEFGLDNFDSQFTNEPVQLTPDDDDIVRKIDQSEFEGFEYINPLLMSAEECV
Kind of assay: PKCι IC50 IMAP assay, full-length PKCι at 150 μM ATP. In kind it is biochemical. Particulars: read-out: IC50 in IMAP assay against full length PKCi at 150 μM ATP. The essentials:
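Full-length human PKCι from Sf21 cells, typically 15 pM, with 100 nM 5FAM-PKCε pseudosubstrate peptide and 150 μM ATP (5× apparent KM), 60 min at room temperature, 4% DMSO. IMAP fluorescence polarisation read-out; inhibition normalised to no-compound and no-enzyme controls, IC50 from curve fit.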

As for `FC1(F)CCCC(Nc2cc(-c3nc(N4CCNCC4)c4c(C5CC5)cncc4n3)ccn2)C1` (stereo not shown) [Example 673, [4-(5-Cyclopropyl-4-piperazin-1-yl-pyrido[3,4-d]pyrimidin-2-yl)-pyridin-2-yl]-(3,3-difluoro-cyclohexyl)-amine], the concentration for half-maximal inhibition (IC50) – broadly, the concentration that inhibits the measured activity by half – is under 100 nM. To `COc1cc(Nc2cc(-c3nc(N4CCNCC4)c4c(C5CC5)cncc4n3)ccn2)cc(OC)c1OC` [Example 611, [4-(5-Cyclopropyl-4-piperazin-1-yl-pyrido[3,4-d]pyrimidin-2-yl)-pyridin-2-yl]-(3,4,5-trimethoxy-pheny)-amine] belongs 100 to 1000 nM; to `[2H]c1c([2H])c([2H])c(Nc2cc(-c3nc(N4CCNCC4)c4c(C5CC5)cncc4n3)ccn2)c([2H])c1[2H]` [Example 559, [4-(5-Cyclopropyl-4-piperazin-1-yl-pyrido[3,4-d]pyrimidin-2-yl)-pyridin-2-yl]-pentdeuterio-phenyl-amine], under 100 nM; to `O[C@@H]1CN(c2nc(-c3ccnc(Nc4cccc(N5CCOCC5)c4)c3)nc3cncc(C4CC4)c23)CC[C@@H]1O` (racemic) [Example 2005, (+/−)-cis-1-{5-Cyclopropyl-2-[2-(3-morpholin-4-yl-phenylamino)-pyridin-4-yl]-pyrido[3,4-d]pyrimidin-4-yl}-piperidine-3,4-diol], under 100 nM. As for `COc1cncc2nc(-c3ccnc(Nc4cccc(F)n4)c3)nc(N3CCNCC3)c12` [Example 447, (6-Fluoro-pyridin-2-yl)-[4-(5-methoxy-4-piperazin-1-yl-pyrido[3,4-d]pyrimidin-2-yl)-pyridin-2-yl]-amine], the IC50 was under 100 nM. In the case of `c1cc(-c2nc(N3CCOCC3)c3ccncc3n2)ccn1` [Example 21, 4-[2-(pyridin-4-yl)pyrido[3,4-d]-pyrimidin-4-yl]morpholine] it was 10000 to 40000 nM; in that of `c1cc(-c2nc(N3CCNCC3)c3c(C4CC4)cncc3n2)c2cc([C@@H]3C[C@H]4CC[C@@H]3O4)[nH]c2n1` (racemic) [Example 2121, (±)-exo-5-Cyclopropyl-2-[2-(7-oxa-bicyclo[2.2.1]hept-2-yl)-1H-pyrrolo[2,3-b]pyridin-4-yl]-4-piperazin-1-yl-pyrido[3,4-d]pyrimidine], under 100 nM. To `c1cc(-c2nc(N3CCNCC3)c3c(C4CCC4)cncc3n2)c2cc([C@@H]3C[C@H]4CC[C@@H]3O4)[nH]c2n1` (racemic) [Example 2122, (±)-exo-5-Cyclobutyl-2-[2-(7-oxa-bicyclo[2.2.1]hept-2-yl)-1H-pyrrolo[2,3-b]pyridin-4-yl]-4-piperazin-1-yl-pyrido[3,4-d]pyrimidine] belongs under 100 nM; to `COc1cncc2nc(-c3ccnc(Nc4cc(C#N)ccn4)c3)nc(N3CCN(C)CC3)c12` [Example 397, 2-{4-[5-Methoxy-4-(4-methyl-piperazin-1-yl)-pyrido[3,4-d]pyrimidin-2-yl]-pyridin-2-ylamino}-isonicotinonitrile], 100 to 1000 nM.

As to `N[C@H](CNc1nc(N2CCOCC2)nc2cnccc12)Cc1ccccc1` [Example 1014, (S)—N^1-(2-Morpholin-4-yl-pyrido[3,4-d]pyrimidin-4-yl)-3-phenyl-propane-1,2-diamine], the 50% inhibitory concentration (IC50) was in the range of 100 to 1000 nM.

Turning to `N[C@H](CNc1nc(-c2ccncc2)nc2c(-c3ccc(O)cc3)nccc12)Cc1ccccc1` [Example 91, 4-(4-{[(2S)-2-amino-3-phenylpropyl]-amino}-2-(pyridin-4-yl)pyrido[3,4-d]-pyrimidin-8-yl)phenol], the half-maximal inhibitory concentration (IC50) lay within 100 to 1000 nM. In the case of `N#Cc1cccc(CC(=O)Nc2cc(-c3nc(N[C@@H]4CCNC4)c4ccncc4n3)ccn2)c1` [Example 348, 2-(3-Cyano-phenyl)-N-{4-[4-((R)-pyrrolidin-3-ylamino)-pyrido[3,4-d]pyrimidin-2-yl]-pyridin-2-yl}-acetamide], the concentration for half-maximal inhibition (IC50) was under 100 nM. Regarding `Fc1ccccc1C1(c2cc3c(-c4nc(N5CCNCC5)c5c(C6CC6)cncc5n4)ccnc3[nH]2)CC1` [Example 2009, 5-Cyclopropyl-2-{2-[1-(2-fluoro-phenyl)-cyclopropyl]-1H-pyrrolo[2,3-b]pyridin-4-yl}-4-piperazin-1-yl-pyrido[3,4-d]pyrimidine], the IC50 is under 100 nM.

Consider `c1ccc(C[C@@H]2CN(c3nc(-c4ccncc4)nc4cnccc34)CCN2)cc1` [Example 17, (3R)-3-benzyl-1-[2-(pyridin-4-yl)-pyrido[3,4-d]-pyrimidin-4-yl]-piperazine], for which the 50% inhibitory concentration (IC50) lay within 1000 to 10000 nM. In the case of `CC(C)(c1ccccc1)c1cc2c(-c3nc(N4CCNCC4)c4c(C5CC5)cncc4n3)ccnc2[nH]1` [Example 2086, 5-Cyclopropyl-2-[2-(1-methyl-1-phenyl-ethyl)-1H-pyrrolo[2,3-b]pyridin-4-yl]-4-piperazin-1-yl-pyrido[3,4-d]pyrimidine] it was under 100 nM; in that of `Clc1ccc(Nc2cc(-c3nc(N[C@@H]4CCNC4)c4ccncc4n3)ccn2)nc1` [Example 346, {2-[2-(5-Chloro-pyridin-2-ylamino)-pyridin-4-yl]-pyrido[3,4-d]pyrimidin-4-yl}-(R)-pyrrolidin-3-yl-amine], under 100 nM.

Turning to `Fc1cccc(F)c1Nc1cc(-c2nc(NCC3CCN(C4CCC4)CC3)c3c(C4CC4)cncc3n2)ccn1` [Example 2103, (1-Cyclobutyl-piperidin-4-ylmethyl)-{5-cyclopropyl-2-[2-(2,6-difluoro-phenylamino)-pyridin-4-yl]-pyrido[3,4-d]pyrimidin-4-yl}-amine], the half-maximal inhibitory concentration (IC50) was 100 to 1000 nM.

Turning to `CCc1cccc(Nc2cc(-c3nc(N4CCNCC4)c4c(C5CC5)cncc4n3)ccn2)c1` [Example 623, [4-(5-Cyclopropyl-4-piperazin-1-yl-pyrido[3,4-d]pyrimidin-2-yl)-pyridin-2-yl]-(3-ethyl-phenyl)-amine], the 50% inhibitory concentration (IC50) is under 100 nM. Consider `COc1cncc2nc(-c3ccnc4[nH]c(Cc5ccccc5F)cc34)nc(N3CCNCC3)c12` [Example 1203, 2-[2-(2-Fluoro-benzyl)-1H-pyrrolo[2,3-b]pyridin-4-yl]-5-methoxy-4-piperazin-1-yl-pyrido[3,4-d]pyrimidine], for which the IC50 was under 100 nM. Turning to `Fc1cnc2[nH]c(C(F)(F)F)cc2c1-c1nc(N2CCNCC2)c2c(C3CC3)cncc2n1` [Example 1232, 5-Cyclopropyl-2-(5-fluoro-2-trifluoromethyl-1H-pyrrolo[2,3-b]pyridin-4-yl)-4-piperazin-1-yl-pyrido[3,4-d]pyrimidine], the IC50 was under 100 nM. `CC(=O)Nc1cc(-c2nc(N3CCN[C@H](C(F)(F)F)C3)c3c(C4CC4)cncc3n2)ccn1` [Example 659, N-{4-[5-Cyclopropyl-4-((S)-3-trifluoromethyl-piperazin-1-yl)-pyrido[3,4-d]pyrimidin-2-yl]-pyridin-2-yl}-acetamide]: the IC50 lay within 100 to 1000 nM. To `OC1CCN(c2nc(-c3ccnc(Nc4cccc(F)n4)c3)nc3cncc(C4CC4)c23)CC1` [Example 805, 1-{5-Cyclopropyl-2-[2-(6-fluoro-pyridin-2-ylamino)-pyridin-4-yl]-pyrido[3,4-d]pyrimidin-4-yl}-piperidin-4-ol] belongs 100 to 1000 nM; to `COc1cncc2nc(-c3ccnc(Nc4cnn(C5CCNCC5)c4)c3)nc(N3CCNCC3)c12` [Example 414, [4-(5-Methoxy-4-piperazin-1-yl-pyrido[3,4-d]pyrimidin-2-yl)-pyridin-2-yl]-(1-piperidin-4-yl-1H-pyrazol-4-yl)-amine], under 100 nM. To `COc1ccc(F)c(Nc2cc(-c3nc(N4CCNCC4)c4c(C5CC5)cncc4n3)ccn2)c1F` [Example 566, [4-(5-Cyclopropyl-4-piperazin-1-yl-pyrido[3,4-d]pyrimidin-2-yl)-pyridin-2-yl]-(2,6-difluoro-3-methoxy-phenyl)-amine] belongs under 100 nM; to `COc1cncc2nc(-c3ccncc3)nc(N3CCOCC3)c12` [Example 70, 4-[5-methoxy-2-(pyridin-4-yl)-pyrido[3,4-d]-pyrimidin-4-yl]-morpholine], 1000 to 10000 nM; to `CN(c1nc(-c2ccnc(Nc3c(F)cccc3F)c2)nc2cncc(C3CC3)c12)C1CNC1` [Example 2029, Azetidin-3-yl-{5-cyclopropyl-2-[2-(2,6-difluoro-phenylamino)-pyridin-4-yl]-pyrido[3,4-d]pyrimidin-4-yl}-methyl-amine], under 100 nM. As for `COc1cncc2nc(-c3ccnc(NC(=O)C4CC4)c3)nc(N3CCNCC3)c12` [Example 216, Cyclo-propane-carboxylic acid[4-(5-methoxy-4-piperazin-1-yl-pyrido[3,4-d]pyrimidin-2-yl)-pyridin-2-yl]-amide], the IC50 is under 100 nM.

`N#CC1CCN(c2nc(-c3ccnc4[nH]c(C(F)(F)F)cc34)nc3cncc(C4CC4)c23)CC1` [Example 1241, 1-[5-Cyclopropyl-2-(2-trifluoromethyl-1H-pyrrolo[2,3-b]pyridin-4-yl)-pyrido[3,4-d]pyrimidin-4-yl]-piperidine-4-carbonitrile]: the IC50 lay in the range of 100 to 1000 nM.

Source of the values: patent US9914730B2, “Azaquinazoline inhibitors of Atypical protein Kinase C” (Ignyta, Inc., priority 2012, dated 2018).
